Laboratory results published in patent publication US20240083944A1 (priority 2021, published 2024).
Starred links: 1 amine or outer side, 2 acyl side, 3 side chain; linkers in the order of their positions; H or OH if unused. Positions of bridges follow the written chain, without caps; N, C: chain ends. Non-standard residues stand in square brackets, D forms with d. Chains are numbered I, II in the order given. X3 = O=C(CCCc1ccc(I)cc1)NCCOCCOCCOCCOCCOCCOCCOCCOCCOCCOCCn1cc(CCC(=O)NC(COCCC(=O)NCCOCCOCCOCCOCCOCCOCCOCCOCCOCCOCCn2cc(CCC(=O)[*:1])nn2)(COCCC(=O)NCCOCCOCCOCCOCCOCCOCCOCCOCCOCCOCCn2cc(CCC(=O)[*:2])nn2)COCCC(=O)NCCOCCOCCOCCOCCOCCOCCOCCOCCOCCOCCn2cc(CCC(=O)[*:3])nn2)nn1; X2 = O=C(CCOCCN(CCOCCC(=O)NCCOCCOCCOCCOCCOCCOCCOCCOCCOCCOCCn1cc(CCC(=O)[*:2])nn1)CCOCCC(=O)NCCOCCOCCOCCOCCOCCOCCOCCOCCOCCOCCn1cc(CCC(=O)[*:3])nn1)NCCOCCOCCOCCOCCOCCOCCOCCOCCOCCOCCn1cc(CCC(=O)[*:1])nn1; X1 = C(c1nc(C[*:2])nc(C[*:3])n1)[*:1]; hArg = N=C(N)NCCCC[C@H](N)C(=O)O; tBuAla = CC(C)(C)C[C@H](N)C(=O)O; Agb = N=C(N)NCC[C@H](N)C(=O)O

Key:
SARS-CoV-2 = assay: Mouse Efficacy Model; type: in vivo, male K18-hACE2 mice; conditions: 100 mg/kg (tid) for three days, mice infected with SARS-CoV-2
[1] = system: SARS-CoV-2 pseudotyped HIV-1 virions, B.1.1.7 (Alpha)
[2] = Pharmacokinetic analysis in mouse; type: in vivo; conditions: 3 mg/kg; for half-life: in vivo
From the text: In one embodiment, the multimeric binding complex additionally comprises a half-life extending moiety. References herein to half-life extending moieities refer to any moiety capable of extending the half-life of the resultant multimeric binding complex in vivo when compared to the half-life of said multimeric binding complex in the absence of said half-life extending moiety.

Row | Substance | total viral RNA in nasal turbinate (SARS-CoV-2; FIG. 4 (A)) | subgenomic RNA in nasal turbinate (SARS-CoV-2; FIG. 4 (B)) | total viral RNA in lung (SARS-CoV-2; FIG. 4 (C)) | subgenomic RNA in lung (SARS-CoV-2; FIG. 4 (D)) | IC50 [1] | half-life improvement ([2]; BCY19602 versus BCY18208 (no half-life extending moiety)) | half-life [2]
1 | I: Ac-CPYVAG[Agb][dA]TCL[tBuAla]CK-NH2 / II: Ac-CPYVAG[Agb][dA]TCL[tBuAla]CK-NH2 / III: Ac-CPYVAG[Agb][dA]TCL[tBuAla]CK-NH2 (linker I:1-I:10-I:13, II:1-II:10-II:13, III:1-III:10-III:13 via X1; linker I:14-II:14-III:14 via X2) [BCY17021] | reduction of total viral RNA in nasal turbinate | reduction of subgenomic RNA in nasal turbinate | reduction of total viral RNA in lung | reduction of subgenomic RNA in lung | 0.3 nM | – | –
2 | I: Ac-CPYVAG[hArg][dA]TCL[tBuAla]CK-NH2 / II: Ac-CPYVAG[hArg][dA]TCL[tBuAla]CK-NH2 / III: Ac-CPYVAG[hArg][dA]TCL[tBuAla]CK-NH2 (linker I:1-I:10-I:13, II:1-II:10-II:13, III:1-III:10-III:13 via X1; linker I:14-II:14-III:14 via X3) [BCY19602] | – | – | – | – | – | 10 fold | 3.1 h
3 | I: Ac-CPYVAG[hArg][dA]TCL[tBuAla]CK-NH2 / II: Ac-CPYVAG[hArg][dA]TCL[tBuAla]CK-NH2 / III: Ac-CPYVAG[hArg][dA]TCL[tBuAla]CK-NH2 (linker I:1-I:10-I:13, II:1-II:10-II:13, III:1-III:10-III:13 via X1; linker I:14-II:14-III:14 via X2) [BCY18208] | – | – | – | – | – | – | 0.3 h
